Measured values published in patent US4129721A, “A-40104 antibiotics and process for production thereof” (priority 1977, dated 1978).
Values after ≈ are worked out from the molar mass of the structure shown.

Tests used:
Peptococcus prevoti = assay: standard agar-dilution test, anaerobic bacteria; type: cell-based; conditions: read after 2 hours incubation
Bacteroides vulgatis = assay: standard agar-dilution test, anaerobic bacteria; type: cell-based; conditions: 2 h
Bacteroides fragilis 111 = assay: standard agar-dilution test, anaerobic bacteria; type: cell-based; conditions: Bacteroides fragilis, 111, 2 h
[1] = system: Bacteroides fragilis 1936B; assay: standard agar-dilution test, anaerobic bacteria; type: cell-based; conditions: 2 h
[2] = system: Neisseria gonorrhea Lind.; assay: gradient-plate agar-dilution method; type: cell-based
[3] = system: Hemophilus influenzae Dick.; assay: gradient-plate agar-dilution method; type: cell-based; conditions: Haemophilus influenzae
electrometric titration = type: physicochemical; conditions: 66 percent aqueous dimethylformamide
[4] = system: Peptococcus asaccharolyticus; assay: standard agar-dilution test, anaerobic bacteria; type: cell-based; conditions: Peptoniphilus asaccharolyticus, 2 h
[5] = system: Streptococcus pyogenes C203; assay: experimental bacterial infection in mice; type: in vivo; conditions: sc, two doses, challenge 195 × LD50 (ip), read-out: ED50 × 2
[6] = system: Bacteroides fragilis 1877; assay: standard agar-dilution test, anaerobic bacteria; type: cell-based; conditions: Bacteroides fragilis, 1877, 2 h
[7] = system: Fusobacterium necrophorum; assay: standard agar-dilution test, anaerobic bacteria; type: cell-based; conditions: 2 h
Streptococcus faecalis = assay: standard agar-dilution test; type: cell-based; conditions: Enterococcus faecalis
From the text: (§1) A-40104 factor A is an especially useful antibacterial agent. The minimal inhibitory concentrations (MIC's) at which A-40104 factor A inhibits selected bacteria, as determined by standard agar-dilution tests, are summarized in Table III.

[8] = system: Staphylococcus aureus 3074; assay: standard agar-dilution test; type: cell-based
From the text: as §1

[9] = system: Bordetella bronchiseptica; assay: standard agar-dilution test; type: cell-based
From the text: as §1

[10] = system: Staphylococcus aureus 3055; assay: standard agar-dilution test; type: cell-based
From the text: as §1

[11] = system: Neisseria gonorrhea Sand.; assay: gradient-plate agar-dilution method; type: cell-based
bacteria of Table V = assay: gradient-plate agar-dilution method, series of in vitro tests; type: cell-based
[12] = system: Hemophilus influenzae 251; assay: gradient-plate agar-dilution method; type: cell-based; conditions: Haemophilus influenzae
Clostridium perfringens = assay: microbe, parasite or virus in culture; type: cell-based
[13] = system: Bacteroides Melaninogenicus 2736; assay: standard agar-dilution test, anaerobic bacteria; type: cell-based; conditions: 2 h

**Q.** What does the source list for C=CC1(C)CC(OC(=O)CO[C@@H]2OC[C@@H](O)[C@H](O)[C@H]2O)C2(C)C(C)CCC3(CCC(=O)C32)C(C)C1O (stereo partly drawn) [A-40104 factor A, β,D-xylopyranosyl acetal derivative of pleuromutilin]?
**A.** MIC (Peptococcus prevoti): ≤ 0.5 µg/mL; MIC (Bacteroides vulgatis): 4 µg/mL (≈ 7.83 µM); MIC (Bacteroides fragilis 111): 8 µg/mL (≈ 15.7 µM); MIC [1]: 8 µg/mL (≈ 15.7 µM); MIC [2]: 0.5 µg/mL (≈ 0.979 µM); MIC [3]: 2 µg/mL (≈ 3.92 µM); titratable groups (electrometric titration): no titratable groups are present; MIC [4]: ≤ 0.5 µg/mL; ED50 [5]: 3.6 mg/kg; MIC [6]: 8 µg/mL (≈ 15.7 µM); solubility in alcohols (solubility; alcohols such as methanol and ethanol): soluble in alcohols such as methanol and ethanol; solubility in chloroform (solubility; chloroform): partially soluble in chloroform; solubility in water (solubility; water): insoluble in water; MIC [7]: ≤ 0.5 µg/mL; MIC (Streptococcus faecalis): < 0.5 µg/mL; MIC [8]: < 0.5 µg/mL; MIC [9]: < 0.5 µg/mL; MIC [10]: < 0.5 µg/mL; MIC [11]: 0.07 µg/mL (≈ 0.137 µM); comparison with ampicillin (bacteria of Table V): compares favorably with ampicillin; MIC [12]: 0.7 µg/mL (≈ 1.37 µM); MIC (Clostridium perfringens): 8 µg/mL (≈ 15.7 µM); MIC [13]: 4 µg/mL (≈ 7.83 µM)
